Measured values as given in patent US20130059920A1, “HYDROXYTYROSOL BENEFITS MUSCLE DIFFERENTIATION AND MUSCLE CONTRACTION AND RELAXATION” (DSM IP ASSETS, B.V., priority 2009, published 2013).

Tests used:
[1] = system: genes of calcium signaling and flux; test: Gene chip analysis of human skeletal muscle biopsies (vastus lateralis), Human Genome U133 Plus 2.0; format: in vivo; details: 6 weeks, human muscle biopsy
Experimental: Three groups each n=20 were enrolled in the study. The group assignment was randomly done by subject weight across the 3 groups. Each subject received a total of 3 capsules each day over a period of 6 weeks: • Group 1—Placebo: 3 capsules with each 333 mg of modified starch • Group 2—LOW (50 mg/d hydroxytyrosol): 1 capsule with 333 mg investigational product (1 capsule with 50 mg hydroxytyrosol) and 2 capsules with each 333 mg modified starch • Group 3—HIGH (150 mg/d hydroxytyrosol): 3 capsules with each 333mg investigational product ([…])
Muscle biopsy was performed at 2 h after ingestion of the supplements as it had taken 30 min setup time before the tissue can be removed. Two skeletal muscle tissue biopsies were taken at beginning (day 1, baseline sample) of the study and at day 42. The following was assessed in skeletal muscle tissue: 1) global gene expression profile and 2) cellular factors in tissue involved in energy metabolism or other specific pathways.
A muscle biopsy (100 mg) was taken from the vastus lateralis, a thigh muscle.
The skin was cleaned with 10% povidone-iodine (Betadine Solution, Purdue Pharma L.P., Stamford, Conn.) and then anesthetized by injecting 1.5 cc of 1% Lidocaine-HCL into the skin. A 5-8 mm incision was made in the skin and subcutaneous fat, and then approximately 100 mg of muscle tissue was removed using a Bergstrom biopsy needle from the thigh musculature (Dyna Medical, London, Ont. Canada).
The biopsy was trimmed of adipose and connective tissue, weighted and separated into 25 mg and 75 mg, placed into labelled and cooled cryotubes and immediately frozen in liquid nitrogen. Samples are stored at −80° C. for subsequent analysis. The incision site will be sealed using butterfly bandages, then wrapped with a pressure pack to minimize bruising. Approximately 25 mg of muscle tissue was used to determine the effect of the olive product on the gene expression profile involved in the energy metabolism. Neither the Sponsor nor the investigator has performed genetic finger printing and has destroyed any remaining tissue after their testing has been completed.
RNA extraction from frozen tissue samples (skeletal muscle biopsies) as described above was done using Trizol method as followed:
RNA was processed using the 3′IVT Express Kit (Affymetrix, Cat. No. 901229) according to the manual.
Fragmented aRNA for each sample was hybridized onto a Human Genome U133 Plus 2.0 Gene Chip (Affymetrix, Cat. No. 900467).
All CEL files from Affymetrix were uploaded into the analysis software (Partek) using GCRMA. GCRMA is a method of converting CEL files into expression set using the Robust Multi-array Average (RMA) with the help of probe sequence and with GC-content background correction. It is a method for normalizing and summarizing probe-level intensity measurements from Affymetrix GeneChips. Three steps: Background correction, normalization, summarization.
After GCRMA preprocessing of the .CEL files, we exported the log 2-transformed expression values from Partek and imported them into the R statistics software (version 2.9.2, http://www.R-project.org). The 57 subjects for which both a pre- and a post-measurement was available were included in the analysis. We applied an ANCOVA (analysis of covariance) with the baseline measurement as covariate to each of the 54675 probesets. The aim was to compare the treatment effect between the groups, while adjusting for the individual baselines which might differ between subjects. The treatment effect between groups can thus be estimated more precisely since the subject-to-subject variability can be separated from the within-subject variability. The baseline and the end-measurements correlated well with each other within the subjects. […]

GSH and MDA in LTE rats = format: in vivo, Sprague-Dawley rats; details: 25 mg/kg/day, data not shown
[2] = Endurance capacity, treadmill running to exhaustion after 8 weeks long-term exercise (LTE); format: in vivo, Sprague-Dawley rats; details: exercise (LTE) rats, 25 mg/kg/day by gavage
Experimental: Sprague-Dawley male rats were purchased from a commercial breeder (SLAC, Shanghai). The rats were housed in a temperature—(22-28° C.) and humidity—(60%) controlled animal room and maintained on a 12-h light/12-h dark cycle (light on from 08:00 a.m. to 08:00 p.m.) with free access to food and water throughout the experiments. […] rats weighing 180-200 g were used. At the beginning of experiments, male rats were selected by one week running exercise at low speed (10 m/min, 20 min/day) and those high exercise activity rats were chosen for the experiments. Rats were randomly divided into four groups: Sedentary, Sedentary with HT supplement (25 mg/kg/day), Endurance exercise and Endurance exercise with HT supplement (25 mg/kg/day). HT was administrated by gavage 45 min before exercise program for each animal. Rats were run on a motorized treadmill at a speed of 20 m/min and a grade of 5° for 1 hour per day and 6 days per week. After 8 weeks exercise, endurance capacity was measured by treadmill running to exhaustion at a speed of 30 m/min and a grade of 5°. Exhaustion was defined as the inability to maintain running and avoid sound and light irritation.

OCCc1ccc(O)c(O)c1 [hydroxytyrosol, 3,4-dihydroxyphenylethanol]
baseline-corrected fold-change vs placebo: ATPase, Ca++ transporting, cardiac muscle, fast twitch 1 ([1]; 50 mg HT/d): 1.11
baseline-corrected fold-change vs placebo: ATPase, Ca++ transporting, plasma membrane 2 ([1]; 50 mg HT/d): 1.06
baseline-corrected fold-change vs placebo: ATPase, Ca++ transporting, plasma membrane 4 ([1]; 50 mg HT/d): 1.10
baseline-corrected fold-change vs placebo: ATPase, Ca++ transporting, type 2C, member 1 ([1]; 50 mg HT/d): 1.07
baseline-corrected fold-change vs placebo: C2 calcium-dependent domain containing 3 ([1]; 50 mg HT/d): 1.13
baseline-corrected fold-change vs placebo: EF-hand calcium binding domain 2 ([1]; 50 mg HT/d): 1.09
baseline-corrected fold-change vs placebo: EF-hand calcium binding domain 7 ([1]; 50 mg HT/d): 1.00
baseline-corrected fold-change vs placebo: S100 calcium binding protein A4 ([1]; 50 mg HT/d): 1.07
baseline-corrected fold-change vs placebo: S100 calcium binding protein A8 ([1]; 50 mg HT/d): 1.08
baseline-corrected fold-change vs placebo: S100 calcium binding protein A10 ([1]; 50 mg HT/d): 1.06
baseline-corrected fold-change vs placebo: S100 calcium binding protein A13 ([1]; 50 mg HT/d): 1.05
baseline-corrected fold-change vs placebo: S100 calcium binding protein B ([1]; 50 mg HT/d): 1.05
baseline-corrected fold-change vs placebo: annexin A1 ([1]; 50 mg HT/d): 1.11
baseline-corrected fold-change vs placebo: annexin A2 ([1]; 50 mg HT/d): 1.13
baseline-corrected fold-change vs placebo: annexin A2 pseudogene 2 ([1]; 50 mg HT/d): 1.09
baseline-corrected fold-change vs placebo: annexin A6 ([1]; 50 mg HT/d): 1.06
baseline-corrected fold-change vs placebo: annexin A11 ([1]; 50 mg HT/d): 1.04
baseline-corrected fold-change vs placebo: cadherin, EGF LAG seven-pass G-type receptor 2 (flamingo homolog, Drosophila) ([1]; 50 mg HT/d): 1.08
baseline-corrected fold-change vs placebo: calbindin 2 ([1]; 50 mg HT/d): 1.06
baseline-corrected fold-change vs placebo: calcineurin-like phosphoesterase domain containing 1 ([1]; 50 mg HT/d): 1.11
baseline-corrected fold-change vs placebo: calcium and integrin binding family member 2 ([1]; 50 mg HT/d): 0.98
baseline-corrected fold-change vs placebo: calcium binding protein 4 ([1]; 50 mg HT/d): 1.07
baseline-corrected fold-change vs placebo: calcium binding protein 39 ([1]; 50 mg HT/d): 1.07
baseline-corrected fold-change vs placebo: calcium channel, voltage-dependent, L type, alpha 1S subunit ([1]; 50 mg HT/d): 1.03
baseline-corrected fold-change vs placebo: calcium channel, voltage-dependent, beta 1 subunit ([1]; 50 mg HT/d): 1.02
baseline-corrected fold-change vs placebo: calcium channel, voltage-dependent, gamma subunit 1 ([1]; 50 mg HT/d): 1.03
baseline-corrected fold-change vs placebo: calcium channel, voltage-dependent, gamma subunit 6 ([1]; 50 mg HT/d): 1.06
baseline-corrected fold-change vs placebo: calcium/calmodulin-dependent protein kinase II delta ([1]; 50 mg HT/d): 1.09
baseline-corrected fold-change vs placebo: calcium/calmodulin-dependent protein kinase kinase 2, beta ([1]; 50 mg HT/d): 1.11
baseline-corrected fold-change vs placebo: calmodulin 1 (phosphorylase kinase, delta) ([1]; 50 mg HT/d): 1.14
baseline-corrected fold-change vs placebo: calmodulin 3 (phosphorylase kinase, delta) ([1]; 50 mg HT/d): 1.09
baseline-corrected fold-change vs placebo: calmodulin regulated spectrin-associated protein 1 ([1]; 50 mg HT/d): 1.04
baseline-corrected fold-change vs placebo: calnexin ([1]; 50 mg HT/d): 0.98
baseline-corrected fold-change vs placebo: calpain 2, (m/II) large subunit ([1]; 50 mg HT/d): 1.04
baseline-corrected fold-change vs placebo: calpain 3, (p94) ([1]; 50 mg HT/d): 0.99
baseline-corrected fold-change vs placebo: calreticulin ([1]; 50 mg HT/d): 1.06
baseline-corrected fold-change vs placebo: protein phosphatase 3, catalytic subunit, alpha isozyme ([1]; 50 mg HT/d): 1.09
baseline-corrected fold-change vs placebo: regulator of calcineurin 1 ([1]; 50 mg HT/d): 1.07
baseline-corrected fold-change vs placebo: ryanodine receptor 3 ([1]; 50 mg HT/d): 1.23
baseline-corrected fold-change vs placebo: striatin, calmodulin binding protein 3 ([1]; 50 mg HT/d): 1.13
baseline-corrected fold-change vs placebo: ATPase, Ca++ transporting, cardiac muscle, fast twitch 1 ([1]; 150 mg HT/d): 1.196
baseline-corrected fold-change vs placebo: ATPase, Ca++ transporting, plasma membrane 2 ([1]; 150 mg HT/d): 1.174
baseline-corrected fold-change vs placebo: ATPase, Ca++ transporting, plasma membrane 4 ([1]; 150 mg HT/d): 1.023
baseline-corrected fold-change vs placebo: ATPase, Ca++ transporting, type 2C, member 1 ([1]; 150 mg HT/d): 1.080
baseline-corrected fold-change vs placebo: C2 calcium-dependent domain containing 3 ([1]; 150 mg HT/d): 1.078
baseline-corrected fold-change vs placebo: EF-hand calcium binding domain 2 ([1]; 150 mg HT/d): 1.080
baseline-corrected fold-change vs placebo: EF-hand calcium binding domain 7 ([1]; 150 mg HT/d): 1.075
baseline-corrected fold-change vs placebo: S100 calcium binding protein A4 ([1]; 150 mg HT/d): 1.114
baseline-corrected fold-change vs placebo: S100 calcium binding protein A8 ([1]; 150 mg HT/d): 1.056
baseline-corrected fold-change vs placebo: S100 calcium binding protein A10 ([1]; 150 mg HT/d): 1.045
baseline-corrected fold-change vs placebo: S100 calcium binding protein A13 ([1]; 150 mg HT/d): 1.064
baseline-corrected fold-change vs placebo: S100 calcium binding protein B ([1]; 150 mg HT/d): 1.019
baseline-corrected fold-change vs placebo: annexin A1 ([1]; 150 mg HT/d): 1.070
baseline-corrected fold-change vs placebo: annexin A2 ([1]; 150 mg HT/d): 1.047
baseline-corrected fold-change vs placebo: annexin A2 pseudogene 2 ([1]; 150 mg HT/d): 1.007
baseline-corrected fold-change vs placebo: annexin A6 ([1]; 150 mg HT/d): 1.062
baseline-corrected fold-change vs placebo: annexin A11 ([1]; 150 mg HT/d): 1.065
baseline-corrected fold-change vs placebo: cadherin, EGF LAG seven-pass G-type receptor 2 (flamingo homolog, Drosophila) ([1]; 150 mg HT/d): 1.030
baseline-corrected fold-change vs placebo: calbindin 2 ([1]; 150 mg HT/d): 1.006
baseline-corrected fold-change vs placebo: calcineurin-like phosphoesterase domain containing 1 ([1]; 150 mg HT/d): 1.070
baseline-corrected fold-change vs placebo: calcium and integrin binding family member 2 ([1]; 150 mg HT/d): 1.114
baseline-corrected fold-change vs placebo: calcium binding protein 4 ([1]; 150 mg HT/d): 1.024
baseline-corrected fold-change vs placebo: calcium binding protein 39 ([1]; 150 mg HT/d): 1.082
baseline-corrected fold-change vs placebo: calcium channel, voltage-dependent, L type, alpha 1S subunit ([1]; 150 mg HT/d): 1.080
baseline-corrected fold-change vs placebo: calcium channel, voltage-dependent, beta 1 subunit ([1]; 150 mg HT/d): 1.125
baseline-corrected fold-change vs placebo: calcium channel, voltage-dependent, gamma subunit 1 ([1]; 150 mg HT/d): 1.087
baseline-corrected fold-change vs placebo: calcium channel, voltage-dependent, gamma subunit 6 ([1]; 150 mg HT/d): 1.178
baseline-corrected fold-change vs placebo: calcium/calmodulin-dependent protein kinase II delta ([1]; 150 mg HT/d): 1.113
baseline-corrected fold-change vs placebo: calcium/calmodulin-dependent protein kinase kinase 2, beta ([1]; 150 mg HT/d): 1.033
baseline-corrected fold-change vs placebo: calmodulin 1 (phosphorylase kinase, delta) ([1]; 150 mg HT/d): 1.153
baseline-corrected fold-change vs placebo: calmodulin 3 (phosphorylase kinase, delta) ([1]; 150 mg HT/d): 1.041
baseline-corrected fold-change vs placebo: calmodulin regulated spectrin-associated protein 1 ([1]; 150 mg HT/d): 1.089
baseline-corrected fold-change vs placebo: calnexin ([1]; 150 mg HT/d): 1.066
baseline-corrected fold-change vs placebo: calpain 2, (m/II) large subunit ([1]; 150 mg HT/d): 1.053
baseline-corrected fold-change vs placebo: calpain 3, (p94) ([1]; 150 mg HT/d): 1.082
baseline-corrected fold-change vs placebo: calreticulin ([1]; 150 mg HT/d): 1.044
baseline-corrected fold-change vs placebo: protein phosphatase 3, catalytic subunit, alpha isozyme ([1]; 150 mg HT/d): 1.048
baseline-corrected fold-change vs placebo: regulator of calcineurin 1 ([1]; 150 mg HT/d): 1.009
baseline-corrected fold-change vs placebo: ryanodine receptor 3 ([1]; 150 mg HT/d): 1.355
baseline-corrected fold-change vs placebo: striatin, calmodulin binding protein 3 ([1]; 150 mg HT/d): 1.024
GSH (GSH and MDA in LTE rats): no effect
MDA (GSH and MDA in LTE rats): no effect
improvement of endurance capacity [2]: 35%
